SMILES strings stand for the structures.

Experimental findings from paper PMC10254045, “Elaboration of the Effective Multi-Target Therapeutic Platform for the Treatment of Alzheimer’s Disease Based on Novel Monoterpene-Derived Hydroxamic Acids” (International Journal of Molecular Sciences, 2023) are described below.

One data set deals with T1, HDAC6 (Homo sapiens, UniProt Q9UBN7).
T1 construct: purchased Enzo Life Sciences
T1 sequence (Q9UBN7 1-1215): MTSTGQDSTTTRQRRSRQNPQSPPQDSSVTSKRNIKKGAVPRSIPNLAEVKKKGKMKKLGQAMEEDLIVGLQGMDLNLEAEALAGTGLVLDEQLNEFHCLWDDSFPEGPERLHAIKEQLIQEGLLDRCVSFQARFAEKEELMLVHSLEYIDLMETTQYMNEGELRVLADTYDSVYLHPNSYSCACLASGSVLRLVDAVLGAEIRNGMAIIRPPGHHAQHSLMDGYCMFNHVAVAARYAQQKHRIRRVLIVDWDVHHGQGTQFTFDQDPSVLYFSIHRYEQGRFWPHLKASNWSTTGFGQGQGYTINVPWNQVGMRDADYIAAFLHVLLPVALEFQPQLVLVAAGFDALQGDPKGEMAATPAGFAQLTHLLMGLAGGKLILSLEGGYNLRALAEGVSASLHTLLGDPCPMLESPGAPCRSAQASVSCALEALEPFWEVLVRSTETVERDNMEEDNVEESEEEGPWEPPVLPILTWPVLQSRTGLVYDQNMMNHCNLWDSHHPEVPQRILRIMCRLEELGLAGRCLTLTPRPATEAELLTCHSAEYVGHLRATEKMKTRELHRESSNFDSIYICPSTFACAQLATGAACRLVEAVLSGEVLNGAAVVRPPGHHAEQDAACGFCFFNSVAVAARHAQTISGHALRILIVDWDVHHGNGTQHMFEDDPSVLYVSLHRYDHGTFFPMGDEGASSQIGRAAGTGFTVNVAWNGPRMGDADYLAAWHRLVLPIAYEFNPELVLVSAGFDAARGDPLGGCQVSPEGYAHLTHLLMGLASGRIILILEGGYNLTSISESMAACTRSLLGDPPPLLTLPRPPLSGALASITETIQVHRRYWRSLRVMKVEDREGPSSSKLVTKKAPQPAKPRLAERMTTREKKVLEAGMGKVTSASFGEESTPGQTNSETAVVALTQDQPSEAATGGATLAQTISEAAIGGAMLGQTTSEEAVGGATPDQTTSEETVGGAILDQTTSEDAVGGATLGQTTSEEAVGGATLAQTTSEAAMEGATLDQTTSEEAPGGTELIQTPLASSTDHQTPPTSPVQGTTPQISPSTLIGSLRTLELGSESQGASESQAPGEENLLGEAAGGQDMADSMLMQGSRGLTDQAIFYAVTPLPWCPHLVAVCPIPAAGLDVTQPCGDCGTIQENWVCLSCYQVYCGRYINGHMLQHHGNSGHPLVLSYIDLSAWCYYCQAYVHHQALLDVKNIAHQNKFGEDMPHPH
Put plainly: Fluorimetric measurement of HDAC6 activity (FLUOR DE LYS kit). Format: biochemical. Particulars: Table 1; read-out: HDAC6-Inhibitory Effect, IC50.

The subject of data set [1] is 5xFAD transgenic mice brain. Put plainly: MDA level in brain samples (TBA test). The format is in vivo. Particulars: 21-day administration, 15 mg/kg; p = 0.001 vs 5xFAD. The text has this: As part of the in vivo testing of the biological activity of the leader compound, a transgenic mouse model with Alzheimer’s disease 5xFAD at the age of 13 months was used. This line expresses two human genes: APP (amyloid peptide precursor protein gene) with three types of mutations (Swedish (K670N, M671L), Florida (I716V) and London (V717I)), as well as the presenilin 1 gene with mutations (M146L and L286V) characteristic of this disease. Clinically healthy wildtype single-litter mice C57Bl6/j (n = 8) were used as a control group. […]
To determine the level of malondialdehyde in the brain of animals, the samples were homogenized in a buffer solution and subjected to a centrifugation procedure at 12,000 rpm for 10 min at 4 °C, after which the infusion fluid was collected for subsequent analysis. Quantitative determination of the protein was carried out as described earlier.
The content of malondialdehyde was determined using a modified TBA test. […] The optical density of the selected suprasetting fluid was measured using a multifunctional Cytation™3 flatbed analyzer (BioTek Instruments, Inc., Winooski, VT, USA) at λ = 540 nm.

A further data set is described as follows: Cell viability, MTT test. The format is cell-based. The conditions noted are these: human, SH-SY5Y neuroblastoma cells, 24-h exposure, read-out: IC50 cytotoxic action. On the procedure:
The culture of human neuroblastoma cells (defined as SH-SY5Y) was cultured in DMEM with the addition of embryonic bovine serum (10%), 2 mM glutamine (DiaM, Moscow, Russia) and penicillin-streptomycin (100 U/Ml–100 µg/mL, PanEco, Moscow, Russia) in conditions of 5% CO2 in the air at 37 °C. Upon reaching 80% confluence, cells in the amount of 1 × 10^4 were placed in 96-well transparent plates and incubated under the same conditions for 24 h. After the incubation time, the cells were exposed to a 24-h exposure to various concentrations of hydroxamic acids dissolved in dimethyl sulfoxide (range from 1 to 100 µM). An equivalent volume of solvent was used as a control (final DMSO content = 1%).
Cell survival analysis was performed using MTT test. To do this, 3-(4,5-dimethylthiazol-2-yl)-2,5-diphenyltetrazolium bromide (MTT, 5 mg/mL, DiaM, Moscow, Russia) was introduced into all wells and incubated at 37 °C for 2 h to restore metabolically active cells of the yellow tetrazolium salt MTT to purple formazane crystals. The resulting formazane was then re-suspended in 200 µL DMSO per well. The optical density was recorded using a multifunctional Cytation™3 flatbed analyzer (BioTek Instruments, Inc., Winooski, VT, USA) at λ = 530 nm.
In general terms: Tetrazolium assays rely on reduction of a dye to a coloured formazan, in cell work by metabolically active cells.

Usually IC50 stands for the concentration needed to halve the response being measured. Regarding `C=C(C)[C@@H]1CC=C(CNC(=O)/C=C/c2ccc(C(=O)NO)cc2)CC1` [Compound 35a, (S,E)-N-hydroxy-4-(3-oxo-3-(((4-(prop-1-en-2-yl)cyclohex-1-en-1-yl)methyl)amino)prop-1-en-1-yl)benzamide], the IC50 on HDAC6 is 3.85 ± 0.24 µM. In data set [1], the “MDA level in brain (increase in 5xFAD mice)” value is “reversed”. The IC50 at 24 h in the data set “Cell viability, MTT test” came out at 89.2 ± 2.09 µM.
